From US20050143346A1, “Composition for treating cancer containing n,n-dimethylphytosphingosine” (priority 2002, published 2005)

Assays:
LLC-PK1 cell = test: MTT assay, apoptosis inducing effect on LLC-PK1 cell; assay type: cell-based; conditions: FIG. 6
Method: (§1) This experiment was performed by MTT assay. MTT (3-[4,5-Dimethylthiazol-2-yl]-2,5-diphenyltetrazolium) is a staining reagent displaying yellow color when it is dissolved in medium, but it is discolored to violet formazan by active dehydrogenase in mitochondria of viable cell. […] HL60 cell lines were seeded to 96-well plate at appropriate concentration, and incubated in 5% CO2 incubator at 37° C. for 24 hrs. Thereafter, individual sample to be assessed on apoptosis effect, i.e. phytosphingosine, C2 phytoceramide, tetraacetylphytosphingosine, C6 phytoceramide, C8 phytoceramide, C3 ceramide, sphinganine, dimethylsphingosine and dimethylphytosphingosine was diluted with serum free RPMI. Cells were treated with […]˜50 µM of the dilutions, and incubated for 24 hrs. MTT (final concentration: 0.5 mg/ml) was loaded to the individual well. After incubating for another 3 hrs and dissolving the staining reagent with pipette, the absorbance was measured at 570 nm.
This Experiment was carried out in an identical manner to that described for example 3, except for using LLC-PK1 cell to induce apoptosis.

[1] = system: histone component presented in nucleosome of cytoplasm of cell lysates; test: Anti-histone antibody binding ELISA (mono- or oligosome detection); assay type: cell-based; conditions: FIG. 10
From the text: This experiment was based on the theory of ELISA. Briefly, Mono- or oligosome of degraded nucleic acid in cytoplasm can be detected by means of monoclonal antibodies which are specific for histones (H2A, H2B, H3 and H4) and single-stranded or double-stranded DNA. Cells which apoptosis was induced activated Ca2+ and Mg2+-dependent endonuclease, and the enzyme degraded adjacent double stranded DNA to form mono- or oligosome. On this account, histone which had been compactly bound to the DNA in nucleus was exposed to outside.
First, anti-histone antibody was immobilized to 96 well plate. Coating solution was added, and reaction was performed at ambient temperature for 1 hr. Then, each sample was treated to obtain cell lysates, and histone component presented in nucleosome of cytoplasm of cell lysates was adhered to the 96 well plate to which anti-histone antibody was immobilized. Above procedure was performed at 15˜25° C. for 90 min. Then, anti-DNA-peroxidase (POD) was bound to DNA part of nucleosome of cytoplasm. This procedure was performed at ambient temperature for 90 min. Unbound peroxidase conjugate was washed, ABTS(2,2′-azino-di-[3-ethylbenzthiazoline sulfonate]) was added as an substrate, reacted for 10˜20 min, and then absorbance was measured at 405 nm.

HL60 cell = test: MTT assay, apoptosis inducing effect on HL60 cell; assay type: cell-based; conditions: 0.5 M˜[…], 24 hrs, FIG. 4
Method: An apoptosis inducing effect of N,N-dimethylphytosphingosine was assayed. Anti-cancer effect is expressed through various signal transduction pathway depending on working mechanism and chemical structure, but consequently give rise to apoptosis which allows cells to be killed.
as §1

Bacillus licheniformis = test: Antibacterial effect, colony counting; assay type: cell-based; conditions: B. licheniformis, FIG. 12
Method: (§2) The present inventors performed experiment using Bacillus licheniformis (Gram positive bacteria) and E. coli(Gram negative bacteria) to test an antibacterial activity of N,N-dimethylphytosphingosine. In this experiment, autoclaved LB (bactopeptone 10 g/l, yeast extracts 5 g/l, and sodium chloride 10 g/l) or TS (triptone 15 g/l, soitone 5 g/l, and sodium chloride 5 g/l) was used as culture medium, and cultured at 30° C. or 37° C. for 2-3 days. After culturing, an antibacterial capacity was measured by counting the number of cells. […] Each microbe was cultured, diluted successively with 10-fold, smeared on the medium, cultured again, and then dilution rate which formed 30-300 populations per plate medium was determined. After culturing each microbe, the culture was diluted with the determined dilution rate. At this time, 0.85% NaCl was used as a diluted solution. A sample which was prepared by above mentioned method was diluted successively with a solvent for preparing the sample. After obtaining the desired concentration, 1 ml of the diluted sample was added to 9 ml of a diluted solution of microbes, and then mixed thoroughly. After standing at 30° C. or 37° C. for 1 hr (with mixing occasionally), each 100 μl was smeared on the culture medium. After culturing under individual condition, the number of population was measured.

E. coli = test: Antibacterial effect, colony counting; assay type: cell-based; conditions: FIG. 12
Method: as §2

MDA-MB-231 cell = test: MTT assay, apoptosis inducing effect on MDA-MB-231 cell; assay type: cell-based; conditions: FIG. 8
Method: as §1
This Experiment was carried out in an identical manner to that described for example 3, except for using MDA-MB-231 cell to induce apoptosis.

[2] = system: sphingosine kinase from mouse; test: Inhibition of sphingosine kinase activity ([32P]ATP, sphingosine-1-phosphate formation); assay type: biochemical; conditions: compared with dimethylsphingosine; 37° C. for 20 min; FIG. 3
Method: The same experiment was performed on dimethylsphingosine to compare with the effect of dimethylphytosphingosine of the present invention. Sphingosine kinase assay buffer was prepared as follows to determine an activity of sphingosine kinase: 20 mM Tris buffer, pH 7.2, 10 mM MgCl2, 20% glycerol, 1 mM dithiothreitol, 1 mM Na3VO4, 15 mM NaF, […] leupeptin and aprotinin, 1 mM PMSF and 0.5 mM 4-deoxypyridoxine.
The reaction was 200 μl, each 50 μM dimethylsphingosine and dimethylphytosphingosine dissolved in 0.25% Triton X-100, 10 ng of sphingosine kinase from mouse and 1 mM [32P] ATP were added, and reacted at 37° C. for 20 min. After completion of the reaction, the reaction was terminated by adding 20˜50 μl of 1N HCl. Following termination, lipid was separated and purified by adding 1 ml of chloroform, and dried under nitrogen gas. An inhibitory effect against sphingosine kinase was found by measuring isotope with scintillation counter and then determining produced sphingosine-1-phosphate. In the graph, indicated in FIG. 3, Y axis represents CPM and X axis represents concentration (μM).

HaCaT cell = test: MTT assay, apoptosis inducing effect on HaCaT cell; assay type: cell-based; conditions: FIG. 5
Method: as §1
This Experiment was carried out in an identical manner to that described for example 3, except for using HaCaT cell to induce apoptosis.

HL60 cells = test: DNA fragmentation by agarose gel electrophoresis; assay type: cell-based; conditions: 24 hrs, FIG. 9
Method: DNA fragmentation as a representative characteristic of apoptosis was assessed at a level of concentration including cytotoxicity. Apoptosis is a programmed cell death, characterized by complicate biological characteristics including morphological changes, chromatin condensation, a formation of apoptotic body and the like. This experiment was performed to assess DNA fragmentation among them. HL60 cells were seeded (1×10^7 cell/10 ml), and incubated in 5% CO2 incubator at 37° C. for 24 hrs. Then, N,N-dimethylphytosphingosine and control substances (at concentration indicated in FIG. 9) was added and incubated for 24 hrs. All of substances were dissolved in EtOH. Cells were recovered by centrifugation, and then cell membrane was disrupted by adding lysis buffer (5 mM Tris-HCl (PH 7.4), 20 mM EDTA, 0.5% Triton X-100). After centrifuging at 12,000 rpm for 10 min, supernatant in which DNA fragments were dissolved was recovered. To the supernatant was added equivalent amount of phenol, vortexed, centrifuged at 12,000 rpm for 10 min, and then supernatant was recovered carefully. DNA extraction with phenol:chloroform:isoamylalcohol (25:24:1) or chloroform was performed in a same manner as the method with phenol. To the supernatant which was treated by various solvents was added a solution of 0.3 M sodium acetate (pH 5.2) in EtOH, and precipitated in a freezer at −20° C. for 24 hrs. After centrifuging at 12,000 rpm for 10 min, supernatant was decanted to obtain DNA pellets. 70% EtOH was added to the remaining DNA pellets to wash them. Again, after centrifuging, supernatant was discarded, the remaining DNA fragments were dissolved in TE buffer. To remove RNA in addition-to DNA fragments, […] of 0.5 mg/ml RNAse was added, and reacted at 37° C. for 30 min. DNA fragmentation was found by 1.2% agarose gel electrophoresis. […] N-acylsphingosine was known as apoptosis inducing substance, and DNA fragmentation was one example of such effects. […] Accordingly, it is considered that N,N-dimethylphytosphingosine of the present invention has excellent apoptosis inducing effect compared to N-acylsphingosine. It was not observed that CLA ceramide belonging to sphingosineceramide induced DNA fragmentation.
The following is the meaning of the symbols used in FIG. 9. • SM: DNA size marker • EtOH: Ethanol • 1: DMPS 12.5 μM • 2: DMPS 25.0 μM • 3: DMPS 50.0 μM • 4: C2 ceramide 25.0 μM • 5: C2 ceramide 50.0 μM • 6: CLA ceramide 25.0 μM • 7: CLA ceramide 50.0 μM

B104 cell = test: MTT assay, apoptosis inducing effect on B104 cell; assay type: cell-based; conditions: FIG. 7
Method: as §1
This Experiment was carried out in a manner identical to that described for example 3, except for using B104 cell to induce apoptosis.

protein kinase C(PKC) = test: PKC inhibition effect using epidermis cells of rat; assay type: cell-based; conditions: 100 μM and 400 μM; compared with other sphingolipid derivatives; FIG. 11
Method: The present inventors assessed an inhibitory effect of N,N-dimethylphytosphingosine on protein kinase C(PKC) using epidermis cells of rat. Epidermis cells were cultured to 2×10^7 cell/ml. N,N-dimethylphytosphingosine and other sphingolipid derivatives (100 μM and 400 μM respectively) were added, and reacted. The cells were washed with PBS and disrupted with homogenizer. The disruption of cells was centrifuged, and the supernatant was passed through DE52 column to obtain a portion containing protein kinase C. For activated PKC reaction, a tube containing 5 μl of PKC coactivation 5× buffer, PKC activation 5× buffer, PKC biotinylated peptide substrate, [32P]ATP mix respectively were prepared as a control. Also, other individual tubes containing 5 μl of PKC coactivation 5× buffer, control 5× buffer, PKC biotinylated peptide substrate, [32P]ATP mix were prepared further containing 5 μl of the relevant enzyme in each tube. The reaction was performed at 30° C. for 5 min. Thereafter, terminating solution (12.5 μl) was added to quench the reaction. The reaction solution (10 μl) was dropped on SAM2™ membrane, washed with 2 M NaCl (1×, 30 seconds), 2 M NaCl (3×, 2 min), 1% H3PO4 and 2M NaCl solution (4×, 2 min), and distilled water (2×, 30 seconds), dried and then measured isotope to assess the effect of PKC inhibition. The results were in FIG. 11. […]

Structure (SMILES) | cell death (MTT assay) (LLC-PK1 cell) | cell death effect compared to dimethylsphingosine (LLC-PK1 cell) | absorbance (A405 nm-A490 nm), anti-histone antibody binding [1] | cell death (MTT assay) (HL60 cell) | amount of colonies reduced to (Bacillus licheniformis; 1 μg/ml) [%] | number of colonies (Bacillus licheniformis) | amount of colonies reduced to (E. coli; 1 μg/ml) [%] | number of colonies (E. coli) | cell death (MTT assay) (MDA-MB-231 cell) | cell death effect compared to dimethylsphingosine (MDA-MB-231 cell) | inhibitory effect against sphingosine kinase (produced sphingosine-1-phosphate, CPM) [2] | cell death (MTT assay) (HaCaT cell) | cell death effect compared to dimethylsphingosine (HaCaT cell) | DNA fragmentation (electrophoresis), result in words (HL60 cells; DMPS 12.5-50.0 μM, C2 ceramide and CLA ceramide 25.0 and 50.0 μM) | concentration at which DNA fragmentation was induced (HL60 cells) [µM] | degree of DNA fragmentation compared to C2 ceramide (HL60 cells) | cell death (MTT assay) (B104 cell) | cell death effect compared to dimethylsphingosine (B104 cell) | inhibitory effect on PKC (protein kinase C(PKC))
CCCCCCCCCCCCCCC(O)C(O)C(CO)N(C)C (centres unmarked) [N,N-dimethylphytosphingosine] | induced cell death | far superior to that of dimethylsphingosine | higher absorbance (A405 nm-A490 nm) than other controls | induced cell death | 40 | reduced | 40 | reduced | induced cell death | far superior to that of dimethylsphingosine | more strong inhibitory effect than that of dimethylsphingosine | induced cell death | far superior to that of dimethylsphingosine | obvious ladder-like DNA fragmentation at a lower concentration compared to C2-ceramide | 25.0 | stronger than C2 ceramide | induced cell death | far superior to that of dimethylsphingosine | stronger inhibitory effect than any other compound
CCCCCCCCCCCCC/C=C/[C@@H](O)[C@H](CO)NC(C)=O [C2-ceramide, N-acylsphingosine, reference compound] |  |  |  |  |  |  |  |  |  |  |  |  |  |  | 25.0 |  |  |  | 
